Test results: PubChem BioAssay AID194 (DTP/NCI, 2004)
Where “and” joins values, the source holds several entries; their conditions need not be identical. Equal entries are not always repeated. Results filed as inconclusive are left out.

System: BDF1 mice, B16 melanoma s.c., survival/tumor T/C
Test: NCI In Vivo Anticancer Drug Screen. Data for tumor model B16 Melanoma (subcutaneous) in B6D2F1 (BDF1) mice
Experimental: The antitumor activity of compounds was measured in mice bearing transplantable tumors. Survival or tumor size were measured and the results are expressed as the measurement made in the treated group (T) divided by the measurement made in the vehicle treated control group (C). The tumor model used in this assay is B16 Melanoma (subcutaneous) in B6D2F1 (BDF1) mice

## O=C1c2ccccc2C(=O)c2c(NCCNCCO)ccc(NCCNCCO)c21
endpoint: median survival time, dose: 0.5 mg/kg/injection, schedule: Q01DX009 (ip), vehicle: saline with Tween-80, higher = longer survival
  T/C: 106 % of control and 119 % of control
endpoint: median survival time, dose: 0.5 mg/kg/injection, schedule: Q01DX009 (ip), vehicle: saline, higher = longer survival
  T/C: 111 % of control
endpoint: median survival time, dose: 1.0 mg/kg/injection, schedule: Q01DX009 (ip), vehicle: saline with Tween-80, higher = longer survival
  T/C: 93 % of control and 115 % of control
endpoint: median survival time, dose: 1.0 mg/kg/injection, schedule: Q01DX009 (ip), vehicle: saline, higher = longer survival
  T/C: 104 % of control and 110 % of control
endpoint: median survival time, dose: 1.0 mg/kg/injection, schedule: Q02DX009 (ip), vehicle: saline, higher = longer survival
  T/C: 100 % of control
endpoint: median survival time, dose: 2.0 mg/kg/injection, schedule: Q01DX009 (ip), vehicle: saline with Tween-80, higher = longer survival
  T/C: 101 % of control and 108 % of control
endpoint: median survival time, dose: 2.0 mg/kg/injection, schedule: Q01DX009 (ip), vehicle: saline, higher = longer survival
  T/C: 100 % of control and 104 % of control and 107 % of control
endpoint: median survival time, dose: 4.0 mg/kg/injection, schedule: Q01DX009 (ip), vehicle: saline, higher = longer survival
  T/C: 92 % of control
endpoint: median survival time, dose: 4.0 mg/kg/injection, schedule: Q02DX009 (ip), vehicle: Klucel (hydroxypropylcellulose) (HPC), higher = longer survival
  T/C: 94 % of control
endpoint: median survival time, dose: 4.0 mg/kg/injection, schedule: Q02DX009 (ip), vehicle: saline, higher = longer survival
  T/C: 154 % of control
endpoint: median survival time, dose: 8.0 mg/kg/injection, schedule: Q01DX009 (ip), vehicle: Klucel (hydroxypropylcellulose) (HPC), higher = longer survival
  T/C: 104 % of control
endpoint: median survival time, dose: 8.0 mg/kg/injection, schedule: Q01DX009 (ip), vehicle: saline, higher = longer survival
  T/C: 107 % of control
endpoint: median survival time, dose: 8.0 mg/kg/injection, schedule: Q02DX009 (ip), vehicle: Klucel (hydroxypropylcellulose) (HPC), higher = longer survival
  T/C: 117 % of control
endpoint: median survival time, dose: 8.0 mg/kg/injection, schedule: Q02DX009 (ip), vehicle: saline, higher = longer survival
  T/C: 110 % of control
endpoint: median survival time, dose: 8.0 mg/kg/injection, schedule: Q02DX009 (ip), vehicle: water, higher = longer survival
  T/C: 107 % of control
endpoint: median survival time, dose: 13.0 mg/kg/injection, schedule: Q01DX009 (ip), vehicle: Klucel (hydroxypropylcellulose) (HPC), higher = longer survival
  T/C: 104 % of control
endpoint: median survival time, dose: 16.0 mg/kg/injection, schedule: Q01DX009 (ip), vehicle: Klucel (hydroxypropylcellulose) (HPC), higher = longer survival
  T/C: 152 % of control
endpoint: median survival time, dose: 16.0 mg/kg/injection, schedule: Q01DX009 (ip), vehicle: saline, higher = longer survival
  T/C: 117 % of control
endpoint: median survival time, dose: 16.0 mg/kg/injection, schedule: Q02DX009 (ip), vehicle: Klucel (hydroxypropylcellulose) (HPC), higher = longer survival
  T/C: 113 % of control
endpoint: median survival time, dose: 16.0 mg/kg/injection, schedule: Q02DX009 (ip), vehicle: water, higher = longer survival
  T/C: 95 % of control and 106 % of control
endpoint: median survival time, dose: 43.0 mg/kg/injection, schedule: Q04DX003 (ip), vehicle: Klucel (hydroxypropylcellulose) (HPC), higher = longer survival
  T/C: 97 % of control
endpoint: median survival time, dose: 74.0 mg/kg/injection, schedule: Q01DX001 (ip), vehicle: Klucel (hydroxypropylcellulose) (HPC), higher = longer survival
  T/C: 91 % of control
endpoint: median tumor weight (est.), dose: 13.0 mg/kg/injection, schedule: Q01DX009 (ip), vehicle: Klucel (hydroxypropylcellulose) (HPC), higher = larger tumour
  T/C: 64 % of control
endpoint: median tumor weight (est.), dose: 43.0 mg/kg/injection, schedule: Q04DX003 (ip), vehicle: Klucel (hydroxypropylcellulose) (HPC), higher = larger tumour
  T/C: 52 % of control

## C1CCC2[N-]CC3CCCCC3[N-]CC3CCCCC3[N-]CC3CCCCC3[N-]CC2C1.[Cu] (stereo not drawn)
endpoint: median survival time, dose: 5.12 mg/kg/injection, schedule: Q01DX005 (ip), vehicle: Klucel (hydroxypropylcellulose) (HPC), higher = longer survival
  T/C: 98 % of control
endpoint: median survival time, dose: 6.4 mg/kg/injection, schedule: Q01DX005 (ip), vehicle: Klucel (hydroxypropylcellulose) (HPC), higher = longer survival
  T/C: 95 % of control and 96 % of control and 102 % of control
endpoint: median survival time, dose: 8.0 mg/kg/injection, schedule: Q01DX001 (ip), vehicle: Klucel (hydroxypropylcellulose) (HPC), higher = longer survival
  T/C: 93 % of control and 95 % of control and 106 % of control
endpoint: median survival time, dose: 8.0 mg/kg/injection, schedule: Q01DX005 (ip), vehicle: Klucel (hydroxypropylcellulose) (HPC), higher = longer survival
  T/C: 96 % of control and 97 % of control and 98 % of control
endpoint: median survival time, dose: 10.0 mg/kg/injection, schedule: Q01DX001 (ip), vehicle: Klucel (hydroxypropylcellulose) (HPC), higher = longer survival
  T/C: 95 % of control and 107 % of control and 109 % of control
endpoint: median survival time, dose: 12.5 mg/kg/injection, schedule: Q01DX001 (ip), vehicle: Klucel (hydroxypropylcellulose) (HPC), higher = longer survival
  T/C: 93 % of control and 94 % of control and 119 % of control

## O=NN(CCF)C(=O)NC1C(O)CCCC1O (stereo not drawn)
endpoint: median survival time, dose: 3.11 mg/kg/injection, schedule: Q01DX007 (ip), vehicle: water, higher = longer survival
  T/C: 98 % of control
endpoint: median survival time, dose: 5.18 mg/kg/injection, schedule: Q01DX007 (ip), vehicle: water, higher = longer survival
  T/C: 103 % of control
endpoint: median survival time, dose: 8.64 mg/kg/injection, schedule: Q01DX007 (ip), vehicle: water, higher = longer survival
  T/C: 112 % of control
endpoint: median survival time, dose: 14.4 mg/kg/injection, schedule: Q01DX007 (ip), vehicle: water, higher = longer survival
  T/C: 123 % of control

## ClCC[N-]CC[N-]CCCl.ClCC[N-]CC[N-]CCCl.[O-][Cl+3]([O-])([O-])O.[Zn+2]
endpoint: median survival time, dose: 2.5 mg/kg/injection, schedule: Q01DX009 (ip), vehicle: saline with Tween-80, higher = longer survival
  T/C: 102 % of control
endpoint: median survival time, dose: 5.0 mg/kg/injection, schedule: Q01DX009 (ip), vehicle: saline with Tween-80, higher = longer survival
  T/C: 94 % of control
endpoint: median survival time, dose: 10.0 mg/kg/injection, schedule: Q01DX009 (ip), vehicle: saline with Tween-80, higher = longer survival
  T/C: 115 % of control
endpoint: median survival time, dose: 20.0 mg/kg/injection, schedule: Q01DX009 (ip), vehicle: saline with Tween-80, higher = longer survival
  T/C: 89 % of control
